pEC50: −log10 of the molar value.
Experiments:
EP2 [1] = biological target: T1, EP2 (Homo sapiens, UniProt P43116); test: EP2 binding assay
EP2 [2] = biological target: T1, EP2; test: EP2 cAMP functional assay; assay type: cell-based
EP2 [3] = biological target: T1, EP2; test: EP2 Ca2+ signal assay; assay type: cell-based

T1 sequence (P43116 whole entry): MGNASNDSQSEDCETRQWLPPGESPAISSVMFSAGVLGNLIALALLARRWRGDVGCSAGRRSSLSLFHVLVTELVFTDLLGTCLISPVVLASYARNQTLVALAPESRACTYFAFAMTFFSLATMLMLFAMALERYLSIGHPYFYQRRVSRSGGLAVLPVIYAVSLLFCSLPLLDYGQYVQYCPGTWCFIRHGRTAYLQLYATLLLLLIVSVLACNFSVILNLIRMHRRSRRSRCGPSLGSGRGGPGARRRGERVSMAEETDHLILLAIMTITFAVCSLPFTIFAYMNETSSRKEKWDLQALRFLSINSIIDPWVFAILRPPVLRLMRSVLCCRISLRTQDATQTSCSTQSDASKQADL

pEC50 (EP2 [1]) | pEC50 (EP2 [2]) | pEC50 (EP2 [3]) | SMILES
5.92 | 7.01 | 5.27 | CCCCCC(=O)c1ccc(N2C(COCc3ccc(C(=O)O)s3)CCS2(=O)=O)cc1 (stereo not drawn) [Compound 17]
5.53 | 6.94 | 5.08 | CCCCCC(O)c1ccc(N2C(COCc3ccc(C(=O)O)s3)CCS2(=O)=O)cc1 (stereo not drawn) [Compound 15]
